Source: patent US7955815B2, “Two-photon fluorescent probes for acidic vesicles in live cells and tissue and method of imaging acidic vesicles in live cells and tissue using the same” (Korea University Industrial & Academic Collaboration …, priority 2007, dated 2011)
Values after ≈ are worked out from the molar mass of the structure shown.

Tests used:
[1] = test system: acidic vesicles in macrophages; experiment: Two-photon microscopy images of labeled macrophages, co-localized with LysoTracker Red OPM image; format: cell-based; conditions: TPM
Excerpt: TPM images of individual macrophages labeled with the probe AH2 of Example 2 were obtained (FIG. 3).
In contrast, the TPM images of the AH2-labeled macrophages emitted TPEF only at 500-620 nm (3b), and not at 360-460 nm (3a), which was attributed to the membrane-bound probe.
To unambiguously determine whether the intense red spots (3b) are indeed the acidic vesicles, the macrophages were stained With LYSOTRACKER™ Red (LTR), a well known one-photon fluorescent probe, and a one-photon micrography (OPM) image thereof was obtained (3c). The TPM image was co-localized with the OPM image (3d).
Acidic vesicles were imaged in the same manner as in Experimental Example 3-(1), except that the probe AH1 of Example 1 was used instead of the probe AH2 of Example 2.
Acidic vesicles were imaged in the same manner as in Experimental Example 3-(1), except that the probe AL1 of Example 3 was used instead of the probe AH2 of Example 2.

[2] = Two-photon action cross section by fs fluorescence measurement, fluorescein as reference; format: physicochemical; conditions: 780 nm
Protocol: The two-photon cross section (δ) was determined by using femto second (fs) fluorescence measurement technique.
Specifically, each of the probes AH1, AH2, AL1 and LYSOTRACKER™ Red (DND-99) was dissolved in a universal buffer (pH=3.2) at a concentration of 5.0×10^−6 M and then the two-photon induced fluorescence intensity was measured at 740-940 nm by using fluorescein (8.0×10^−6 M, pH=11) as the reference, whose two-photon property has been well characterized.
The intensities of the two-photon induced fluorescence spectra of the reference and the sample probe were measured, and the two-photon cross section of the sample probe was calculated according to Equation 2: […]
wherein the subscripts s and r represent the sample probe and the reference, respectively, δ represents the two-photon cross section of the sample probe, and S represents the intensity of the signal collected by a detector, Φ represents the fluorescence quantum yield, φ represents the overall fluorescence collection efficiency of the experimental apparatus, c represents the number density of the molecules in solution, and δr represents the two-photon cross section of the reference.
The two-photon action cross section of the sample probe was calculated by multiplying the two-photon cross section by the quantum yield.

[3] = Water solubility from fluorescence intensity vs probe concentration; format: physicochemical; conditions: kinetic from dmso stock, H2O, 0.2% DMSO, read-out: solubility (maximum concentration in the linear region)
Protocol: Each of the probes AH1, AH2 and AL1 prepared in Examples 1-3 was dissolved in DMSO to prepare a stock solution (1.0×10^−3 M). The solution was diluted to […] and added to a cuvette containing 3.0 mL of H2O by using a micro syringe. In all cases, the concentration of DMSO in H2O was maintained to be 0.2%. The fluorescence intensity of the probe was measured as a function of the probe concentration.
Referring to FIG. 1, the fluorescence intensities of the probes increased in all wavelength bands with increasing probe concentration.
The plots (1b, 1d and 1f) have a profile in which the fluorescence intensity increases with increasing probe concentration.
Referring to the profile, the fluorescence intensity increases linearly until the dye concentration reaches a predetermined level. […] The maximum concentration in the linear region was taken as the solubility. The solubilities of the probes AH1, AH2, and AL1 were 5.0, 9.0, and 5.0 μM, respectively.

[4] = Fluorescence as a function of pH in universal buffer; pKa value analysis; format: physicochemical; conditions: for fluorescence intensity change with pH: pH gradually decreased; for pKa: universal buffer solution, from fluorescence intensity as a function of pH
Protocol: Each of the probes AH1 and AH2 was dissolved in a universal buffer solution (0.1 M citric acid, 0.1 M KH2PO4, 0.1 M Na2B4O7, 0.1 M Tris, 0.1 M KCl 10 mM).
The fluorescence intensities of the probes AH1 and AH2 were measured, and titration curves thereof were plotted (FIG. 9). In FIG. 9, Y-axis represents the fluorescence intensity enhancement factor [(F−Fo)/Fo] (F is the fluorescence intensity and Fo is the minimum fluorescence intensity).
The pKa values were estimated from the fluorescence intensity measured as a function of the pH by using the relationship 1: log [(Imax−I)/(I−Imin)]=pH−pKa (1)
wherein I represents the fluorescence intensity, and Imax and Imin represent the maximum and minimum fluorescence intensity, respectively.

[5] = test system: acidic vesicles in hippocampal slices; experiment: TPEF imaging of rat hippocampal slices
Protocol: Slices were prepared from the hippocampi of a 2-day-old rat. The hippocampal slices were cut into a thickness of 400 μm. The slices were incubated with the probes AH2 and AL1 (10-20 μM).
The slices were then washed and transferred to glass-bottomed dishes. The TPEF images of the slices were obtained.
40 TPM images were accumulated along the z-direction at the depth of ˜100-250 μm with magnification 10× (6b).

Structure (SMILES) | imaging of acidic vesicles in macrophages (TPEF at 500-620 nm, merged with LTR image) [1] | two-photon action cross section relative to LysoTracker Red [2] | solubility [3] | fluorescence intensity change with pH [4] | pKa [4] | depth at which TPEF images were obtained ([5]; 400 μm hippocampal slices of 2-day-old rat, probe 10-20 μM) | imaging of transportation of acidic vesicles ([5]; acute rat hippocampal slice, CA3 region, depth ~120 μm, 10 μM) | two-photon action cross section (Φδ) ([2]; universal buffer pH 3.2, 5.0×10^−6 M)
CC(=O)c1ccc2cc(N(C)CC(=O)Nc3ccc(N)cc3)ccc2c1 [AH1] | clearly capable of imaging the acidic vesicles | 9 fold | 5 µM (≈ 1.74 µg/mL) | increased dramatically around pH 4-5 | 4.42 ± 0.03 |  |  | 
COc1cc(NC(=O)CN(C)c2ccc3cc(C(C)=O)ccc3c2)ccc1N [AH2] | clearly capable of imaging the acidic vesicles | 9 fold | 9 µM (≈ 3.4 µg/mL) | increased dramatically around pH 4-5 | 4.18 ± 0.01 | 250 μm |  | 
CC(=O)c1ccc2cc(N(C)CC(=O)NCCN(C)C)ccc2c1 [AL1] | clearly capable of imaging the acidic vesicles |  | 5 µM (≈ 1.64 µg/mL) | maintained at a substantially constant level despite changes in acidity |  |  | can visualize the transportation of acidic vesicles in the CA3 region for a long period of time | 
CN(C)CCNC(=O)CCc1ccc2n1[B-](F)(F)[N+]1=C(c3ccc[nH]3)C=CC1=C2 [LYSOTRACKER™ Red (LTR), reference compound] |  |  |  |  |  |  |  | ~10 GM
